The values that follow come from ChEMBL document CHEMBL3751803, “Discovery of an in Vivo Tool to Establish Proof-of-Concept for MAP4K4-Based Antidiabetic Treatment” (ACS Med Chem Lett, 2015).

Data set [1] can be described thus: Passive permeability in MDCK2 cell with low efflux. Type of data set: ADME, cell-based, Canis lupus familiaris, MDCK-II. Particulars: dog, MDCK.
For data set [2], the target named is T1, Mitogen-activated protein kinase kinase kinase kinase 4 (Homo sapiens, UniProt O95819). The data set can be described thus: Inhibition of human MAP4K4 transfected in 293 MSR cells assessed as inhibition of phosphorylation of traf2 at ser/thr residue by ELISA. Type of data set: cell-based. (In general: An ELISA detects its analyte on a solid surface through an enzyme-linked reagent.)

Data set [3] has as its target T1, Mitogen-activated protein kinase kinase kinase kinase 4. The data set can be described thus: Inhibition of recombinant human MAP4K4 catalytic domain in presence of 10 uM ATP (Km) by FRET assay.
Data set [4] has the same target. The experiment in a line: Inhibition of recombinant human MAP4K4 catalytic domain in presence of 1 mM ATP by FRET assay.
Data set [5] can be described thus: Lipophilicity, log D of the compound. Type of data set: physicochemical. Particulars: octanol/water.
The next data set has as its target CYP2C9 (Homo sapiens, UniProt P11712). The experiment in a line: Inhibition of CYP2C9 (unknown origin) at 3 uM. Type of data set: ADME.
The target of data set [6] is T2, CYP3A4 (Homo sapiens, UniProt P08684). The data set can be described thus: Inhibition of CYP3A4 (unknown origin) at 3 uM. Type of data set: ADME.
For data set [7], the target named is Voltage-gated inwardly rectifying potassium channel KCNH2 (Homo sapiens, UniProt Q12809). The data set can be described thus: Inhibition of human ERG transfected in HEK293 cells. Type of data set: cell-based.
Another data set relates to Liver microsome. The data set can be described thus: Unbound intrinsic clearance in human liver microsomes. Type of data set: ADME. In general terms: Liver microsomes are a subcellular fraction often used to study metabolism.
A short description of data set [8]: Solubility of compound at pH 1.2. Type of data set: physicochemical. Particulars: buffer.
In a further data set the test system is Epithelial cell. The experiment in a line: Cytotoxicity against human liver epithelial cells.
The target of another data set is T3, CYP2C8 (Homo sapiens, UniProt P10632).
T3 sequence (P10632 whole entry): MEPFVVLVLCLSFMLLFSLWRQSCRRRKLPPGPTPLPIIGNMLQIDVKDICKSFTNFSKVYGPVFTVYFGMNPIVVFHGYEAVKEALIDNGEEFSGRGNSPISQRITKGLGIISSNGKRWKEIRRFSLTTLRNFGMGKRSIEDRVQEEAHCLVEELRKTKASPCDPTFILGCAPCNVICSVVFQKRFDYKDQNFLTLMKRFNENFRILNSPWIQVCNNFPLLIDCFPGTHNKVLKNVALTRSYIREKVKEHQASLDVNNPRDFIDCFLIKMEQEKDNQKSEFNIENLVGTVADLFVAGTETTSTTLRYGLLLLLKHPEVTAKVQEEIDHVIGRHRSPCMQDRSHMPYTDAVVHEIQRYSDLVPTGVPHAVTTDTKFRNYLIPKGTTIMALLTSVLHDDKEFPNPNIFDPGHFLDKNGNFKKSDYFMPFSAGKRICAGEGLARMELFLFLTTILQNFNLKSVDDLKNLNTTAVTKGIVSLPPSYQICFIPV
The experiment in a line: Inhibition of CYP2C8 (unknown origin) at 3 uM. Type of data set: ADME.

Data set [9] concerns the target T2, CYP3A4. The data set can be described thus: Time dependent inhibition of CYP3A4 (unknown origin) using midazolam as substrate at 60 uM. Type of data set: ADME. Particulars: probe midazolam.
The target in the next data set is T4, CYP1A2 (Homo sapiens, UniProt P05177).
T4 sequence (P05177 whole entry): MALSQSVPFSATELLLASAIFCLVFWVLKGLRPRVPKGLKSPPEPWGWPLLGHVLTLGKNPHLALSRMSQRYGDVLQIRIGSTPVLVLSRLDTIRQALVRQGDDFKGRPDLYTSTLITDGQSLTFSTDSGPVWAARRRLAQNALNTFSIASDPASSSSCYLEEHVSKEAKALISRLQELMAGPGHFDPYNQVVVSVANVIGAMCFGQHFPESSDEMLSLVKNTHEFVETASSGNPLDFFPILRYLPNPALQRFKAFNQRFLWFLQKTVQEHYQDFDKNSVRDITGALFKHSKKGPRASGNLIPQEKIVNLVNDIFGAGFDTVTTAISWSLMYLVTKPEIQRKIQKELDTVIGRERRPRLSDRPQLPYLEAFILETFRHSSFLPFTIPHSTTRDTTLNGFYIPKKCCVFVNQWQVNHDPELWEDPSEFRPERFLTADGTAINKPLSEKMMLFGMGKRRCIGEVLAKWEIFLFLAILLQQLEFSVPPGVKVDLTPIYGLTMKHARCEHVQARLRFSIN
The data set can be described thus: Inhibition of CYP1A2 (unknown origin) at 3 uM. Type of data set: ADME.

In another data set the test system is Salmonella typhimurium. The data set can be described thus: Mutagenicity in Salmonella typhimurium by Ames test. Type of data set: toxicity, organism-based. Particulars: salmonella enterica subsp. enterica serovar typhimurium. In general terms: The Ames test detects mutagens through reverse mutation in bacteria.
The target of data set [10] is T2, CYP3A4. The experiment in a line: Time dependent inhibition of CYP3A4 (unknown origin) using midazolam as substrate at 30 uM. Type of data set: ADME. The settings on record: probe midazolam.
Data set [11] in a line: Solubility of compound at pH 6.5. Type of data set: physicochemical. The settings on record: buffer.
The next data set has as its target CYP2D6 (Homo sapiens, UniProt P10635). The data set can be described thus: Inhibition of CYP2D6 (unknown origin) at 3 uM. Type of data set: ADME.
Data set [12] is described as follows: Fraction unbound in mouse plasma at 10 mg/kg, po. Type of data set: ADME, organism-based.
Data set [13] has as its target TRAF2 and NCK-interacting protein kinase (Homo sapiens, UniProt Q9UKE5). The data set can be described thus: Inhibition of TNIK (unknown origin) in presence of ATP (Km).
The subject of the next data set is Plasma. The experiment in a line: Plasma concentration in C57/Bl6 mouse at 15 mg/kg, po. Type of data set: ADME, organism-based, C57/BI6. Particulars: in vivo.
Data set [14] concerns Mus musculus. The data set can be described thus: Decrease in blood glucose level in ob/ob mouse at 10 mg/kg, po bid for 4 weeks. Type of data set: functional. The settings on record: 672 h.
Another data set concerns the target Misshapen-like kinase 1 (Homo sapiens, UniProt Q8N4C8). The experiment in a line: Inhibition of MINK (unknown origin) in presence of ATP (Km).
The test system of data set [15] is Mus musculus. The experiment in a line: Inhibition of LPS-induced TNF-alpha level in C57/Bl6 mouse blood at 15 mg/kg, po administered 30 mins prior to LPS challenge measured after […]. The settings on record: C57/BI6, Blood. Type of data set: functional.
For a further data set, the target named is T5, Cytochrome P450 1A2 (Homo sapiens, UniProt P05177).
T5 sequence (P05177 whole entry): T4 sequence (P05177 whole entry)
The experiment in a line: Inhibition of CYP1A2 (unknown origin). Type of data set: ADME.

Each structure is given as a SMILES string. ≈ marks a conversion by molar mass, not a printed value. A value given as a limit tells only on which side of the number the result lay.

T2 sequence (P08684 whole entry): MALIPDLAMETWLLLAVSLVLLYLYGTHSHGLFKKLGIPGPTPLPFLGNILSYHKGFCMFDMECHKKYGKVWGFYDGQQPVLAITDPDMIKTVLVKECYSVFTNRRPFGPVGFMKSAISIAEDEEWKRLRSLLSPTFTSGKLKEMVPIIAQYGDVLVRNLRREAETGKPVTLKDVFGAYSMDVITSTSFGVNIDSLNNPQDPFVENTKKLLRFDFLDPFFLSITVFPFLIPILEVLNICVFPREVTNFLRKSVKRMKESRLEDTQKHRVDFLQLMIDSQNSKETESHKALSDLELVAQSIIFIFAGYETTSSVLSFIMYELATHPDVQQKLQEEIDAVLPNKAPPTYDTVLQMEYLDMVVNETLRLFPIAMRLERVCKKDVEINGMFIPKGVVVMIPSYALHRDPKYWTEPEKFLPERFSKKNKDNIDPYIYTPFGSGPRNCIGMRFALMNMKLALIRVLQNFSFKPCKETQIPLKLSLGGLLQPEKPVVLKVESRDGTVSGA
T1 sequence (O95819 whole entry): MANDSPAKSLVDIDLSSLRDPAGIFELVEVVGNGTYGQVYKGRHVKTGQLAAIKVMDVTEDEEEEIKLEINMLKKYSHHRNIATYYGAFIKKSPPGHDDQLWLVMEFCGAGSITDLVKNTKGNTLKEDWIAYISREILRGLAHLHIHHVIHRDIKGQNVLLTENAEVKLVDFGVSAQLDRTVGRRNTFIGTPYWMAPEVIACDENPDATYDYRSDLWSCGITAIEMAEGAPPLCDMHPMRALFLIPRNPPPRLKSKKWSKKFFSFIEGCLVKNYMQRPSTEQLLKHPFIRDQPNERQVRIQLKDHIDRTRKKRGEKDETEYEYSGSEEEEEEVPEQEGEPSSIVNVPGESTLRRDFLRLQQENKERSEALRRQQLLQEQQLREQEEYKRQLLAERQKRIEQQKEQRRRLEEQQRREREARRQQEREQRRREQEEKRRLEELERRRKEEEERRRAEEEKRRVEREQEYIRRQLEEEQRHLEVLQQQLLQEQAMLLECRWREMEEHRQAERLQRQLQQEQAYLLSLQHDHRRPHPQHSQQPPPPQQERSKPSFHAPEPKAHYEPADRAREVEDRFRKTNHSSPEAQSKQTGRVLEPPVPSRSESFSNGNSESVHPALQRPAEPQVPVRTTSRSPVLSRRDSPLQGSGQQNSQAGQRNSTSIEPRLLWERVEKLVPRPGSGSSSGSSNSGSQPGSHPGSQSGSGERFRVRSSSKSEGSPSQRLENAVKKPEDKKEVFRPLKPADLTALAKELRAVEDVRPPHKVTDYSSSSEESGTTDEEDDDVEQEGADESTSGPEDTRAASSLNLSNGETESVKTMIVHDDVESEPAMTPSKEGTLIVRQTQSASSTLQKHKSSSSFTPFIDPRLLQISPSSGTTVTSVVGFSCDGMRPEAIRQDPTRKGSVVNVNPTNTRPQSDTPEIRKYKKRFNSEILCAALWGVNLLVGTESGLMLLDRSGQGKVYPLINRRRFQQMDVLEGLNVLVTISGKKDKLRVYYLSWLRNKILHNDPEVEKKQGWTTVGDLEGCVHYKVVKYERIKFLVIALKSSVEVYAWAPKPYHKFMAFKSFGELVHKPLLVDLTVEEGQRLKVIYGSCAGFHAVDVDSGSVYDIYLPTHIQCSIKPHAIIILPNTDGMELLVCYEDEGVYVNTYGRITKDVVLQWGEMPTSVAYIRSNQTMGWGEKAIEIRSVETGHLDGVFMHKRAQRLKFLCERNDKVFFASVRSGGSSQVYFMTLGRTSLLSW
Chain of CYP2D6 (P10635 whole entry): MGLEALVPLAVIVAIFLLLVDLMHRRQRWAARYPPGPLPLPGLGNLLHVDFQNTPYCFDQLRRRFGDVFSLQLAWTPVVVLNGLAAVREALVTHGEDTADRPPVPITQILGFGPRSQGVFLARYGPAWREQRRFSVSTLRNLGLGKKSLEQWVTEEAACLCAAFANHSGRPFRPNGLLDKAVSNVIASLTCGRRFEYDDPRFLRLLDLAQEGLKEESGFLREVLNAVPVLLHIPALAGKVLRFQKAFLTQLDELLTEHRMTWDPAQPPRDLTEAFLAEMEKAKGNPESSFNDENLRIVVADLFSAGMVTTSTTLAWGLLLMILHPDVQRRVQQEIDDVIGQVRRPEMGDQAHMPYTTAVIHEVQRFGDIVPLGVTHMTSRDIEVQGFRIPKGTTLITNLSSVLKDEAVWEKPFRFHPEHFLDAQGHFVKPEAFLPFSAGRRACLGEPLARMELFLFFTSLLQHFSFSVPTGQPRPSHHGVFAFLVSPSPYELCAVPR
Chain of Voltage-gated inwardly rectifying potassium channel KCNH2 (Q12809 whole entry): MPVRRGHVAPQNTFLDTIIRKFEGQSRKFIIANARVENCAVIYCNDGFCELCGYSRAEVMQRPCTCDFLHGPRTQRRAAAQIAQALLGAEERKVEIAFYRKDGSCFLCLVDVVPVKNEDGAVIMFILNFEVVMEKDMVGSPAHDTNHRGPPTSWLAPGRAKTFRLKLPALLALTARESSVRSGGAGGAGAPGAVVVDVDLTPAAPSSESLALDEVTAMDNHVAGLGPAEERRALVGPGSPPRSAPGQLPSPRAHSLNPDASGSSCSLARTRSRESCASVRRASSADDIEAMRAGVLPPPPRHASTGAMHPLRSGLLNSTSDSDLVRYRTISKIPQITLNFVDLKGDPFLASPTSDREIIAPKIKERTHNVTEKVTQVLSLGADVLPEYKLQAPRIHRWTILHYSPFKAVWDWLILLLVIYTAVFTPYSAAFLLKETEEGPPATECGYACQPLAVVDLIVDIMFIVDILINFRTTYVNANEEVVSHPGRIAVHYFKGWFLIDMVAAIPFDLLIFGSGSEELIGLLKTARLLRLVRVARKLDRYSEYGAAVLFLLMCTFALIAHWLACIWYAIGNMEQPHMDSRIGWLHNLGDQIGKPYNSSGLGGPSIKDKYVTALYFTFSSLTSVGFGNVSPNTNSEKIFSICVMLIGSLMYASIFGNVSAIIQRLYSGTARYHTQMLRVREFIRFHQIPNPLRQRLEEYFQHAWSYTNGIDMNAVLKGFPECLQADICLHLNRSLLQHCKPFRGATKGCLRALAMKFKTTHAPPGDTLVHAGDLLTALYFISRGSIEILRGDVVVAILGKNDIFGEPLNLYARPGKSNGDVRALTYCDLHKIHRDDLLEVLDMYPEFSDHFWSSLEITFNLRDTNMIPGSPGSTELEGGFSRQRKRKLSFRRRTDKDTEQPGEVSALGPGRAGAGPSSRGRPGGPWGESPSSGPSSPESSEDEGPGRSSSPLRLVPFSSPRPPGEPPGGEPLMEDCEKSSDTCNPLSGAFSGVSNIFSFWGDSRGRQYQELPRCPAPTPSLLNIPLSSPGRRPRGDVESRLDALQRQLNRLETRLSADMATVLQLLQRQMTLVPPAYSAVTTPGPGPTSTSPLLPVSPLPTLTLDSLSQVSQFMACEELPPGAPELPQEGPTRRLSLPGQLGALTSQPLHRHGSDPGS
Chain of CYP2C9 (P11712 whole entry): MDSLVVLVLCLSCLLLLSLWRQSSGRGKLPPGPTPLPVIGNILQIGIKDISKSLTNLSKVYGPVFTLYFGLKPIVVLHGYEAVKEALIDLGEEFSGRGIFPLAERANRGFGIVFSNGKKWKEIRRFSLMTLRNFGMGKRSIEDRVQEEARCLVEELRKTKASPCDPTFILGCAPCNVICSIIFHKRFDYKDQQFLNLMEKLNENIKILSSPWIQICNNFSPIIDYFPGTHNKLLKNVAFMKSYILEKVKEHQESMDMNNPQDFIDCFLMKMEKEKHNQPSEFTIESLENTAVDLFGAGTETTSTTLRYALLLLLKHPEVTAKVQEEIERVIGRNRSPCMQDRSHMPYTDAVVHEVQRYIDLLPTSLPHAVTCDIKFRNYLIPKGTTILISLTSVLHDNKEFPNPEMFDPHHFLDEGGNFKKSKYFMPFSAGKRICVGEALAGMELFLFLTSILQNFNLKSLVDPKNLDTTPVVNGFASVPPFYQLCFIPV

By Papp is commonly meant the rate of passage across a membrane or cell layer, normalised by area and donor concentration. On to `NC(=O)c1ccc(-c2cncc(-c3ccc(OC4CC4)cc3)c2)cc1`, for which the Papp in [1] amounted to 3.5 ×10⁻⁶ cm/s.

The IC50 is the point on the concentration scale where inhibition reaches its midpoint. The term logD denotes the decadic logarithm of the distribution of all forms, ionised or not, between an organic phase and buffer at a given pH. The low end stands for a more hydrophilic compound, the high end for a more lipophilic compound. With `NC(=O)c1ccc(-c2ncc(-c3ccc(Cl)cc3)o2)cc1`, the IC50 in data set [2] is 6300 nM; in data set [3] it was 94 nM; in [4] it was above 10000 nM. This compound also displayed a logD in data set [5] of 3.6.

In [1], `NC(=O)c1ccc(-c2cc(-c3ccc(Cl)cc3)ccn2)cc1` displayed a Papp of 4.4 ×10⁻⁶ cm/s.

With `COc1ccc(-c2cncc(-c3ccc(C(N)=O)cc3)c2)cc1`, the Papp in data set [1] is 8.7 ×10⁻⁶ cm/s.

In data set [1], `Cn1c(-c2ccc(Cl)cc2)cnc1-c1ccc(C(N)=O)cc1` gave a Papp of 15.6 ×10⁻⁶ cm/s.

Compound `NC(=O)c1ccc(-c2cn(-c3ccc(Cl)cc3)cn2)cc1` displayed a Papp in data set [1] of 2.9 ×10⁻⁶ cm/s. This Papp lies about 5.4-fold lower than the previous one.

As a reminder, the inhibition is the relative decrease from the control value, in per cent. The low end stands for a response near the control, the high end for a response far below the control. A word on the solubility: it is the concentration that dissolves in the medium under given conditions. Regarding `Nc1ncc(-c2cnc(N)c(-c3ccc(Cl)cc3)c2)cn1`, the inhibition at 3 µM at CYP2C9, on CYP3A4 [6], at CYP2C8, at CYP1A2 and against CYP2D6 was below 15% throughout. Moreover, the figures for the IC50 (in data set [7]; in the data set with Epithelial cell) were above 10000 nM and above 300000 nM, respectively. In the data set with Liver microsome, this compound had a CL free of 13 mL/min/kg. Further, the solubility in data set [8] (read-out: solubility) is 3960 µg/mL (≈ 13.3 mM); in [11], 2 µg/mL (≈ 0.00672 mM). The compound further yielded an inhibition at 60 µM against CYP3A4 [9] of 24%. Further, the Activity result in the data set on Salmonella typhimurium is “Non-toxic”. Further, 30 µM produced 8% inhibition on CYP3A4 [10].

On to `CS(=O)(=O)c1ccc(-c2cc(-c3ccc(O)cc3)cnc2N)cc1`, for which the Papp in data set [1] amounted to 17.2 ×10⁻⁶ cm/s.

Regarding `CS(=O)(=O)c1ccc(-c2cc(-c3ccc(C(N)=O)cc3)cnc2N)cc1`, in data set [1], the Papp worked out at 6.7 ×10⁻⁶ cm/s.

Usually fraction unbound stands for free concentration divided by total concentration. Read a low fraction unbound as extensive binding. One may read the inhibition in vivo as how much of the control response was suppressed. Regarding `Nc1ccc(-c2cnc(N)c(-c3ccc(Cl)cc3)c2)cn1`, the IC50 in data set [2] is 160 nM; in data set [7], 1800 nM; in data set [13], 15 nM; with Epithelial cell it was above 119000 nM; in [3] it was 3.7 nM; at Misshapen-like kinase 1 it was 8 nM. Besides, inhibition against Cytochrome P450 1A2 was half-maximal at 3000 nM (IC50). Also, the inhibition at 3 µM against CYP2C9, against CYP3A4 [6], against CYP2C8 and against CYP2D6 was below 15% in each case. The fraction unbound in data set [12] turned out to be 0.038. The CL free in the data set on Liver microsome stood at 89 mL/min/kg. Besides, the solubility in [8] was determined as 13000 µg/mL (≈ 43.8 mM); in data set [11] it was 5800 µg/mL (≈ 19.5 mM). Also, the Cp with Plasma amounted to 439 ng/mL. This compound registered an inhibition at 60 µM at CYP3A4 [9] of 61%. In addition, 10 mg/kg produced 44% inhibition in vivo in the data set with Mus musculus [14]. Further, in the data set on Salmonella typhimurium, the Activity entry is recorded as “Toxic”. For the same compound, in the data set on Mus musculus [15], the inhibition in vivo at 15 mg/kg was above 90%. At CYP3A4 [10], this compound had an inhibition at 30 µM of 54%. The compound also returned a Papp in [1] of 7.1 ×10⁻⁶ cm/s.

Take `NC(=O)c1ccc(-c2cncc(-c3ccc(Cl)cc3)c2)cc1`: the Papp in data set [1] is 8.7 ×10⁻⁶ cm/s.

Consider `NC(=O)c1ccc(-n2cc(-c3ccc(Cl)cc3)cn2)cc1`, for which the IC50 in [2] was above 30000 nM; in [3], 248 nM; in data set [4], above 10000 nM.

Compound `Nc1ncc(-c2cc[nH]c(=O)c2)cc1-c1ccc(Cl)cc1` came in with a Papp in data set [1] of 15.7 ×10⁻⁶ cm/s.
